According to patent publication US7691842B2, “Tricyclic 6-alkylidene-penems as β-lactamase inhibitors” (Wyeth LLC, priority 2002, dated 2010):
Counter-ions that a name gives are not always drawn. Like-named read-outs stand apart in the source and are kept apart here.

Experiments:
[1] = molecular target: class C enzyme AmpC (Enterobacter cloacae, UniProt P05364); assay: biochemical; set-up: species or system Enterobacter cloaca
Protocol: (§1) IC50 Determination for the Penem Inhibitor
(§2) β-Lactamase inhibitory activity of the penem inhibitors was determined spectrophotometrically as described by Bush et al., [Bush, K., Macalintal, C., Rasmussen, B. A., Lee, V. and Yang, Y. Antimicrobial Agents and Chemotherapy 1993, 37, 851]. Homogeneously purified class A β-lactamases TEM-1 from E. Coli and Imi-1 from Enterobacter cloacae, class B enzyme CcrA from Bacteroides fragilis and class C enzyme AmpC from Enterobacter cloaca were employed in the assay. The enzyme concentrations for TEM-1, Imi-1, CcrA and AmpC were 4.3, 7.1, 1.2 and 2.1 nM, respectively. A wide range of inhibitor concentrations were prepared in 50 mM PO4, pH 7.0 to include the possible IC50 values. The substrate used to initiate the enzyme reaction was nitrocefin at 50 μg/ml in the same buffer as the inhibitor. Initially the enzyme and inhibitor (20 μl each) were preincubated for 10 minutes at 25° C. prior to the addition of 160 μl volume of nitrocefin. Initial rates of hydrolysis were monitored for 5 minutes at 495 nm using a Molecular Devices Spectra Max 250 with kinetic protocol of SoftMax Program. Readings from the Spectra Max 250 were exported and transferred to Microsoft Excel. The percent of inhibition of each inhibitor concentration was calculated based on the control enzyme activity. The inhibitor concentration that caused a 50% reduction in the enzymatic activity (IC50) was determined graphically.

[2] = molecular target: class A β-lactamase Imi-1 (Enterobacter cloacae, UniProt Q46991); assay: β-Lactamase inhibition, IC50 determination (nitrocefin, spectrophotometric); type: biochemical
Chain of class A β-lactamase Imi-1 (Q46991 entry or part of it): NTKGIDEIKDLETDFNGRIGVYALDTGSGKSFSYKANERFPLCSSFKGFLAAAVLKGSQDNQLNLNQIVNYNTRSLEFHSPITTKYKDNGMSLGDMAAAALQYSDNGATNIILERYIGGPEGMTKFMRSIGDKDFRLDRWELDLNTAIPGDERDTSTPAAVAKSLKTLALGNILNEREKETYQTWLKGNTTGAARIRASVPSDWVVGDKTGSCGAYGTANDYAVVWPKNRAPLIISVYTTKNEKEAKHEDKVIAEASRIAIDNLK
Protocol: as §1, §2

[3] = molecular target: class B enzyme CcrA (Bacteroides fragilis, UniProt P25910); assay: as above; type: biochemical; conditions: enzyme 1.2 nM; 10 min preincubation at 25° C.; nitrocefin 50 μg/ml; 50 mM PO4, pH 7.0; read-out: IC50 (nM) Class B Ccr
Chain of class B enzyme CcrA (P25910 19-249): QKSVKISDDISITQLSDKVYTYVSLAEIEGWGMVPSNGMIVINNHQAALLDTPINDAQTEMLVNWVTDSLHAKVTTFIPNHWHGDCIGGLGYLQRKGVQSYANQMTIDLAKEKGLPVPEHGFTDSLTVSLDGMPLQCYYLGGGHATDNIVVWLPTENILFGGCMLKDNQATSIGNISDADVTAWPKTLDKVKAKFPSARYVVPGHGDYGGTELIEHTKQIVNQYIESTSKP
Protocol: as §1, §2

[4] = molecular target: class A β-lactamase TEM-1 (Escherichia coli, UniProt P62593); assay: as above; type: biochemical, E. Coli
Chain of class A β-lactamase TEM-1 (P62593 24-286 limits assumed): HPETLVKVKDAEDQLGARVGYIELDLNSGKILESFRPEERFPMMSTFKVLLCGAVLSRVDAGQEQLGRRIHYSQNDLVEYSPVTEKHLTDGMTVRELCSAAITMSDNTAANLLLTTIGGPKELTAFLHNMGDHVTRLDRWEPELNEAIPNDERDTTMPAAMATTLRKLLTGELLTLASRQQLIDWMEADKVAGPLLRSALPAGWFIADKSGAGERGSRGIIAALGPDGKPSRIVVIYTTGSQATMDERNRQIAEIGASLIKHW
Protocol: as §1, §2

[5] = system: E. Coli GC2920 (IRT-2); assay: Antimicrobial susceptibility testing, microbroth dilution MIC of piperacillin + inhibitor; type: cell-based; conditions: piperacillin combined with constant 4 μg/ml inhibitor; Inc: 35° C. for 18 hours
Protocol: (§3) Antimicrobial susceptibility testing. The in vitro activities of the antibiotics were determined by the microbroth dilution method as recommended by the National Committee for Clinical Laboratory Standards (NCCLS). (NCCLS. 2000. Methods for Dilution Antimicrobial Susceptibility Tests for Bacteria That Grow Aerobically; Approved Standards: M7-A5, vol. 19. National Committee for Clinical Laboratory Standards, Villanova, Pa.). Mueller-Hinton it broth (MHBII)(BBL Cockeysville, Md.), was used for the testing procedure. Microtiter plates containing 50 μl per well of two-fold serial dilutions of piperacillin combined with a constant amount (4 μg/ml) of a B-lactamase inhibitor (final concentration) were inoculated with 50 μl of inoculum to yield the appropriate density (10^5 CFU/ml) in 100 μl. The plates were incubated for 18-22 hours at 35° C. in ambient air.

[6] = system: S. Marcescens GC1781 Sme-1 + Ampc; assay: as above; type: cell-based; conditions: piperacillin combined with constant 4 μg/ml inhibitor; Inc: 35° C. for 18 hours
Protocol: as §3

[7] = system: E. Coli GC2894 (Ampc); assay: as above; type: cell-based; conditions: piperacillin combined with constant 4 μg/ml inhibitor; Inc: 35° C. for 18 hours
Protocol: as §3

[8] = system: P. aeruginos GC1764 (Ampc); assay: as above; type: cell-based; conditions: piperacillin combined with constant 4 μg/ml inhibitor; Inc: 35° C. for 18 hours
Protocol: as §3

[9] = system: E. Coli GC2847 (TEM-1); assay: as above; type: cell-based; conditions: piperacillin combined with constant 4 μg/ml inhibitor; Inc: 35° C. for 18 hours
Protocol: as §3

[10] = system: E. Coli GC2844; assay: as above; type: cell-based; conditions: piperacillin combined with constant 4 μg/ml inhibitor; Inc: 35° C. for 18 hours
Protocol: as §3

[11] = system: E. Coli GC2203; assay: as above; type: cell-based; conditions: piperacillin combined with constant 4 μg/ml inhibitor; Inc: 35° C. for 18 hours
Protocol: as §3

[12] = system: E. Cloacae GC1477 (Ampc); assay: as above; type: cell-based; conditions: piperacillin combined with constant 4 μg/ml inhibitor; Inc: 35° C. for 18 hours
Protocol: as §3

[13] = enzyme 2.1 nM, 10 min preincubation at 25° C., nitrocefin 50 μg/ml, 50 mM PO4, pH 7.0, read-out: IC50 (nM) Class C AmpC
[14] = enzyme 7.1 nM, 10 min preincubation at 25° C., nitrocefin 50 μg/ml, 50 mM PO4, pH 7.0, read-out: IC50 (nM) Class A Imi
[15] = enzyme 4.3 nM, 10 min preincubation at 25° C., nitrocefin 50 μg/ml, 50 mM PO4, pH 7.0, read-out: IC50 (nM) Class A TEM-1

Chain of class C enzyme AmpC (P05364 21-381): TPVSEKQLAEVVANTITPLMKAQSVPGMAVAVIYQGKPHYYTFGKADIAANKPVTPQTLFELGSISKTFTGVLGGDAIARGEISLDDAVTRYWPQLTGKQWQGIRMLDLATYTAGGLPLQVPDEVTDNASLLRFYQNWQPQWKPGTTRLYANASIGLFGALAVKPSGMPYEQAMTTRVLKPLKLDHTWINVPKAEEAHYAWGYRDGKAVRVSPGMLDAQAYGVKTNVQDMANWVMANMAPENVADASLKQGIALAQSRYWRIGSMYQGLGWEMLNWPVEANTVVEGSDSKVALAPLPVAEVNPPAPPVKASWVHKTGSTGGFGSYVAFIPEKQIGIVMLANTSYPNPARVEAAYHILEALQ

Row | SMILES | IC50 [1] | IC50 [2] | IC50 [3] | IC50 [4] | Minimal Inhibitory Concentration E. Coli GC2920 (IRT-2) [5] | Minimal Inhibitory Concentration S. Marcescens GC1781 Sme-1 + Ampc [6] | Minimal Inhibitory Concentration E. Coli GC2894 (Ampc) [7] | Minimal Inhibitory Concentration P. aeruginos GC1764 (Ampc) [8] | Minimal Inhibitory Concentration E. Coli GC2847 (TEM-1) [9] | Minimal Inhibitory Concentration E. Coli GC2844 [10] | Minimal Inhibitory Concentration E. Coli GC2203 [11] | Minimal Inhibitory Concentration E. Cloacae GC1477 (Ampc) [12] | IC50 [1, 13] | IC50 [2, 14] | IC50 [4, 15]
1 | O=C(O)C1=CS[C@@H]2/C(=C\c3cn4c(cnc5ccccc54)n3)C(=O)N12 [Example 6, (5R),(6Z)-6-(Imidazo[1,2-a]quinoxaline-2-ylmethylene)-7-oxo-4-thia-1-azabicyclo[3.2.0]hepto-2-ene-2-carboxylic acid, sodium salt] | 1.2 nM | 210 nM | 350 nM | 2.5 nM |  |  |  |  |  |  |  |  |  |  | 
2 | O=C(O)C1=CS[C@@H]2/C(=C/c3ccc4c(c3)N(Cc3ccccc3)C(=O)c3ccccc3O4)C(=O)N12 [Example 9, (5R,6E)-6-[(10-benzyl-ii-oxo-10,11-dihydrodibenzo[b,f][1,4]oxazepin-8-yl)methylene]-7-oxo-4-thia-1-azabicyclo[3.2.0]hept-2-ene-2-carboxylic Acid] | 4.5 nM | 3600 nM | 220 nM | 3.5 nM |  |  |  |  |  |  |  |  |  |  | 
3 | Cc1cccc2sc3nc(/C=C4/C(=O)N5C(C(=O)O)=CS[C@H]45)cn3c12 [Example 13] | 1.6 nM | 102 nM | 228 nM | 8.7 nM |  |  |  |  |  |  |  |  |  |  | 
4 | O=C(O)C1=CS[C@@H]2/C(=C\c3cn4c(nc5ccccc54)s3)C(=O)N12 [Example 17, (5R),(6Z)-7-oxo-6-([1,3]thiazolo[3,2-a]benzimidazol-2-ylmethylene)-4-thia-1-azabicyclo[3.2.0]hept-2-ene-2-carboxylic acid] |  |  |  |  | 4 µg/mL | 8 µg/mL | >64 µg/mL | 32 µg/mL | 64 µg/mL | 2 µg/mL | 2 µg/mL | >64 µg/mL |  |  | 
5 | O=C(O)C1=CS[C@@H]2/C(=C\c3cn4nc5c(c4s3)CCC5)C(=O)N12 [Example 18, (5R),(6Z)-6-(7,8-dihydro-6H-cyclopenta[3,4]pyrazolo[5,1-b][1,3]thiazol-2-ylmethylene)-7-oxo-64-thia-1-azabicyclo[3.2.0]hept-2-ene-2-carboxylic acid] |  |  |  |  | 4 µg/mL | 4 µg/mL | >64 µg/mL | 64 µg/mL | >64 µg/mL | 2 µg/mL | 4 µg/mL | >64 µg/mL |  |  | 
6 | Cn1c2ccccc2n2cc(/C=C3/C(=O)N4C(C(=O)O)=CS[C@H]34)nc12 [Example 20, (5R),(6Z)-8-[(9-methyl-9H-imidazo[1,2-a]benzimidazol-2-yl)methylene]-7-oxo-4-thia-1-azabicyclo[3.2.0]hept-2-ene-2-carboxylic acid] |  |  |  |  | 4 µg/mL | 2 µg/mL | 32 µg/mL | 32 µg/mL | >64 µg/mL | 4 µg/mL | 2 µg/mL | >64 µg/mL |  |  | 
7 | O=C([O-])C1=CS[C@@H]2/C(=C\c3cc4c(s3)-c3cccnc3SC4)C(=O)N12.[Na+] [Example 21, (5R,6Z)-7-oxo-6-(4H-thieno[2′,3′:45]thiopyrano[2,3-b]pyridin-2-ylmethylene)-4-thia-1-azabicyclo[3.2.0]hept-2-ene-2-carboxylic acid (Sodium salt)] |  |  | 210 nM |  | 4 µg/mL | 2 µg/mL | 32 µg/mL | 64 µg/mL | >64 µg/mL | 2 µg/mL | 2 µg/mL | >64 µg/mL | 3.7 nM | 580 nM | 11 nM
8 | COc1nc2nc(/C=C3/C(=O)N4C(C(=O)O)=CS[C@H]34)cn2c2c1CCC2 [Example 26, (5R,6Z)-6-[(5-methoxy-7,8-dihydro-6H-cyclopenta[e]imidazo[1,2-a]pyrimidin-2-yl)methylene]-7-oxo-4-thia-1-azabicyclo[3.2.0]hept-2-ene-2-carboxylic acid, sodium salt] | 10 nM | 63 nM | 420 nM | 48 nM |  |  |  |  |  |  |  |  |  |  | 
9 | O=C(O)C1=CS[C@@H]2/C(=C\c3cc4oc5c(n4n3)CCOC5)C(=O)N12 [Example 31, (5R,6Z)-6-(7,8-dihydro-5H-pyrano[4,3-d]pyrazolo[5,1-b][1,3]oxazol-2-ylmethylene)-7-oxo-4-thia-1-azabicyclo[3.2.0]hept-2-ene-2-carboxylic acid, sodium salt] | 4 nM | 140 nM | 130 nM | 4.3 nM |  |  |  |  |  |  |  |  |  |  | 
10 | CCOC(=O)N1CCc2c(oc3cc(/C=C4/C(=O)N5C(C(=O)[O-])=CS[C@H]45)nn23)C1.[Na+] [Example 33, (5R,6Z)-6-{[6-(ethoxycarbonyl)-5,6,7,8-tetrahydropyrazolo[5′,1′:2,3][1,3]oxazolo[5,4-c]pyridin-2-yl]methylene}-7-oxo-4-thia-1-1-azabicyclo[3.2.0]hept-2-ene-2-carboxylic acid, sodium salt] |  |  | 160 nM |  | 4 µg/mL | 2 µg/mL | 64 µg/mL | >64 µg/mL | 64 µg/mL | 2 µg/mL | 2 µg/mL | >64 µg/mL | 140 nM | 360 nM | 10 nM
